“Also recorded” adds a separate entry of the source.
Key:
[1] = Real time in situ AFM step velocity measurements, static conditions
Experimental: A Digital Instruments (Santa Barbara, Calif.) Nanoscope IIIa Multimode system was used for topographical and lattice imaging. All measurements were performed in contact mode using Veeco NP_B Si3N4 cantilever tips with a spring constant of 0.12N/m (triangular, 196 μm length, 41 μm width) on a glass cantilever holder, and a liquid cell was created for in situ step velocity measurements. All L-cystine crystals for AFM measurements were prepared by method 1. Crystals were transferred onto an AFM specimen disk coated with partially cured (1 hr) UV-curable optical cement (Type SK-9, EMS Acquisition Corp.) by gently pressing the disk against hexagonal platelets or L-cystine needles isolated by filtration (Whatman Nuclepore membrane, 8 μm). The (0001) face of hexagonal platelets was exposed normal to the disk for AFM analysis with growth occurring along equivalent {1010} faces in the lateral directions, while the sides of L-cystine needles were exposed normal to the disc. The partially cured polymer with adhered crystals was completely cured by additional UV radiation (2 hrs) prior to analysis. Measurements of individual step heights for hexagonal L-cystine crystals were acquired in air (contact mode) at a scan rate of 1.00 Hz and 256 samples per line over a 15×15 μm^2 surface area. Integral and proportional gains were set to the highest possible values without obtaining feedback. Four hexagonal crystals (5 areas per crystal) were analyzed for statistical step height distributions, which were calculated from >10^3 individual steps. Lattice-resolved images of crystal surfaces were acquired in water (contact mode) using a scan rate of 112 Hz over a 12×12 nm^2 area.
Real time in situ step velocity measurements of L-cystine growth were assessed along six structurally-equivalent {1010} faces of the hexagonal structure. A liquid cell was created with the glass cantilever tip holder, and working solutions were injected through a 1-mL syringe. Prior to injecting the growth medium (i.e. supersaturated L-cystine solution), crystals were etched with deionized water in the fluid cell for one hour to remove amorphous deposits or impurities that may be present on the surface. Supersaturated solutions (0.5 g/L) were generated by adding L-cystine to deionized water, boiling the solution on a heating mantle for 20 min to completely dissolve the solute, and allowing the solution to cool for 20 min on the heating mantle before transferring the solution (via syringe) to the AFM fluid cell. […]
The effect of additives on crystal growth rates was investigated. […] For each measurement, growth was first assessed in the absence of additive, then in the presence of additive on the identical area of the crystal surface to analyze relative changes in step velocity. […]

[2] = Crystal size and habit by optical microscopy and SEM after bulk crystallization with additive
Experimental: Various proteins, poly-amino acids, and molecular mimics of L-cystine were examined as additives. The aforementioned procedure for hexagonal platelet crystallization was repeated. Following the 75 min cooling period, prior to any observable crystallization, the additive was added to the supersaturated L-cystine solution to the desired concentration. The container was sealed and stored for 72 hours at room temperature without stirring, after which the precipitate was collected by vacuum filtration (Whatman Grade 1 filters, >11 μm pores) and were air dried prior to analysis. Crystallization without additive was performed in an identical manner for comparison using a control solution from the same batch. The mass yields of L-cystine crystals were obtained by dividing the mass of L-cystine crystals (collected from growth solution by filtration) by the mass of L-cystine added in the growth solution. The crystals were isolated with 11 μm-pore filters, which were regarded as sufficiently small for reliable capture of the crystals (optical micrographs reveal that the size of crystals was always greater than 50 μm
An Orion 3 Star pH meter (Thermo Electron Corp.) with Orion 9157BNMD probe was used to measure the pH of L-cystine solutions. Crystal morphology was measured with a Leitz ERGOLUZ optical microscope and a Hitachi 3500 scanning electron microscopy. A thin coating of gold (2 nm) was sputtered on SEM samples and images were acquired at low voltage (2-5 kV) to minimize sample melting. ^1H NMR spectra were recorded using a Bruker AVANCE 400 spectrometer and were routinely run using broadband decoupling. Chemical shifts (δ), expressed in ppm, are referenced to the corresponding residual nuclei in deuterated solvent (D2O). Powder X-ray diffraction (XRD) patterns of isolated crystals were acquired with a Panalytical XPert PRO MPD using a Bragg-Brentano geometry with fixed slits at power settings of 45 kV and 40 mA. A CuKa radiation (0.154 nm) source was used with a 1 degree fixed divergence slit (10 mm beam mask) for incident X-rays and a 1 degree anti-scatter slit Ni filter ( 1/16 degree receiving slit) for diffracted X-rays.

COC(=O)[C@@H](N)CSSC[C@H](N)C(=O)OC.Cl.Cl [CDME, Cystine Dimethyl Ester Dihydrochloride]
advancement of higher {1010} steps ([1]; 5.0 g/L CDME, 0.5 g/L L-cystine, step heights >0.6 nm, larger than 1 nm, Dihydrochloride): suppresses; also recorded: completely suppressed
Step velocity of 1-nm steps ([1]; large excess of CDME (5 g/L), 29 nm/min in the absence of additive): 7 nm/min
needle volume less than hexagonal platelets [2]: ~100 times
size of hexagonal platelets ([2]; 1.7 mg/L CDME, 700 mg/L L-cystine, without additive 200-400 μm): 50-100 μm
number of needles collected ([2]; 25 mg/L (3 wt %) CDME, Dihydrochloride): negligible; also recorded: Trace number of needles
